Measurements: patent US10113189B2, “Isolation and characterization of a novel pythium omega 3 desaturase with specificity to all omega 6 fatty acids longer than 18 carbon chains” (priority 2006, dated 2018)

Tests used:
[1] = system: ω-3 desaturase from Pythium irregulare; format: cell-based, S. cerevisiae; settings: for desaturation by ω-3 desaturase from Pythium (in words): expression in yeast, exogenously supplied ω-6 fatty acids; for Conversion (%) / Product (%): yeast transformant pYES2-O3; for Conversion (%): conversion of ω-6 substrate into the corresponding ω-3 product; for Product (%): ω-3 product (ALA, SDA, ETA, EPA, DHA) of the fed substrate, 100 μM, 16° C., 4 days, GC
Protocol: (§1) The plasmids containing the full length O3 genes in the yeast expression vector pYES2.1/V5-His-TOPO were transformed into yeast S. cerevisiae. The positive transformants were selected for uracil auxotrophy on DOB-U agar plates. To characterize the ω-3 desaturase enzyme activity, positive clones and the control (yeast with pYES2.1 vector) were cultured overnight in DOB-U liquid medium at 28° C. and then grown in induction medium (DOB-U+Gal+Raf) containing 100 μM of various exogenously supplied fatty acid substrates at 16° C. for 4 days. The whole yeast cells expressing Pythium ω-3 genes were harvested by centrifugation and washed twice with distilled water. Then the yeast cells were directly transmethylated with methanolic HCl (3N) at 80° C. for 1 hour. The resultant methyl esters were extracted with hexane and analyzed by gas chromatography (GC). GC was carried out as described in WO 2005/083053.

[2] = system: control yeast pYES2 (yeast with pYES2.1 vector); experiment: Production of ω-3 fatty acids from exogenous ω-6 fatty acids in the control yeast pYES2; format: cell-based, S. cerevisiae; settings: ω-3 product (ALA, SDA, ETA, EPA, DHA) of the fed substrate, GC
Protocol: as §1

| Compound | desaturation by ω-3 desaturase from Pythium (in words) [1] | Conversion (%) [1] [%] | Product (%) [1] [%] | Product (%) [2] [%] |
| --- | --- | --- | --- | --- |
| CCCCC/C=C\C/C=C\C/C=C\CCCCCCC(=O)O [DGLA, dihomo-γ-linolenic acid] | desaturates | 9.65 | 1.90 | 0 |
| CC/C=C\C/C=C\C/C=C\C/C=C\C/C=C\CCCCCC(=O)O [DPA, docosapentaenoic acid] | – | 2.01 | 0.20 | 0.03 |
| CCCCC/C=C\C/C=C\C/C=C\CCCCC(=O)O [GLA, γ-linolenic acid] | not able to desaturase | 0 | 0 | 0 |
| CCCCC/C=C\C/C=C\CCCCCCCC(=O)O [LA, linoleic acid] | not able to desaturase | 0 | 0 | 0 |
